{"source": "paper PMC9181188", "about": "(International Journal of Molecular Sciences, 2022)", "key": {"[1]": {"tested_on": "HaCaT cells", "experiment": "MTT assay, HaCaT normal cells", "type": "cell-based", "conditions": "human immortal keratinocyte cell line, 72 h, mean ± SD"}, "[2]": {"tested_on": "SW480 cells", "experiment": "MTT assay, SW480", "type": "cell-based, human", "conditions": "for IC50: Homo sapiens, SW480, 72 h, human primary colon cancer, 72 h, MTT, mean ± SD"}, "[3]": {"tested_on": "E. coli ATCC 25922", "experiment": "MIC, twofold microdilution, standard strain", "type": "cell-based, Escherichia coli", "conditions": "Escherichia coli, ATCC25922; 18 h of treatment; read-out: MIC E. coli ATCC 25922"}, "[4]": {"tested_on": "S. epidermidis KR 4047 825/19", "experiment": "MIC, clinical S. epidermidis strain", "type": "cell-based", "conditions": "Staphylococcus epidermidis, KR4047825/19, quinolone-resistant, 18 h of treatment"}, "[5]": {"tested_on": "P. aeruginosa ATCC 27853", "experiment": "MIC, twofold microdilution, standard strain", "type": "cell-based", "conditions": "Pseudomonas aeruginosa, ATCC27853, 18 h, read-out: MIC P. aeruginosa ATCC 27853"}, "[6]": {"tested_on": "S. epidermidis KR 4358/2 840/19", "experiment": "MIC, clinical S. epidermidis strain", "type": "cell-based", "conditions": "Staphylococcus epidermidis, KR4358/2840/19; clinical S. epidermidis, quinolone-susceptible, 18 h of treatment; read-out: MIC KR 4358/2 840/19"}, "[7]": {"tested_on": "S. epidermidis T 5501 851/19", "experiment": "MIC, clinical S. epidermidis strain", "type": "cell-based", "conditions": "Staphylococcus epidermidis, T5501851/19, read-out: MIC T 5501 851/19, quinolone-susceptible, 18 h of treatment"}, "[8]": {"tested_on": "S. aureus NCTC 4163", "experiment": "MIC, twofold microdilution, standard strain", "type": "cell-based", "conditions": "Staphylococcus aureus, NCTC4163; 18 h of treatment; read-out: MIC S. aureus NCTC 4163"}, "[9]": {"tested_on": "M. tuberculosis H37Rv", "experiment": "MABA (microplate Alamar blue assay) MIC", "type": "cell-based", "conditions": "Mycobacterium tuberculosis, 336 h, read-out: MIC M. tuberculosis H37Rv"}, "[10]": {"tested_on": "standard staphylococci (S. aureus, S. epidermidis)", "experiment": "MIC, standard Gram-positive strains as a group", "type": "cell-based", "conditions": "Staphylococcus aureus; range over standard Gram-positive strains; read-out: MIC against standard staphylococci"}, "[11]": {"tested_on": "S. epidermidis KR 4313 834/19", "experiment": "MIC, clinical S. epidermidis strain", "type": "cell-based", "conditions": "Staphylococcus epidermidis, KR4313834/19, quinolone-susceptible, 18 h of treatment"}, "[12]": {"tested_on": "S. epidermidis KR 4243 829/19", "experiment": "MIC, clinical S. epidermidis strain", "type": "cell-based", "conditions": "Staphylococcus epidermidis, KR4243829/19, quinolone-susceptible, 18 h of treatment"}, "[13]": {"tested_on": "S. epidermidis T 5399 848/19", "experiment": "MIC, clinical S. epidermidis strain", "type": "cell-based", "conditions": "Staphylococcus epidermidis, T5399848/19, quinolone-susceptible, 18 h of treatment"}, "[14]": {"tested_on": "M. tuberculosis Spec. 192 (Sensitive to Tuberculostatics)", "experiment": "MABA (microplate Alamar blue assay) MIC", "type": "cell-based", "conditions": "Mycobacterium tuberculosis, 336 h, read-out: MIC M. tuberculosis Spec. 192 (Sensitive to Tuberculostatics)"}, "[15]": {"tested_on": "S. aureus ATCC 6538", "experiment": "MIC, twofold microdilution, standard strain", "type": "cell-based", "conditions": "Staphylococcus aureus, ATCC6538; 18 h of treatment; read-out: MIC S. aureus ATCC 6538"}, "[16]": {"tested_on": "S. aureus ATCC 25923", "experiment": "MIC, twofold microdilution, standard strain", "type": "cell-based", "conditions": "Staphylococcus aureus, ATCC25923; 18 h of treatment; read-out: MIC S. aureus ATCC 25923"}, "[17]": {"tested_on": "S. epidermidis ATCC 35984", "experiment": "MIC, twofold microdilution, standard strain", "type": "cell-based", "conditions": "Staphylococcus epidermidis, ATCC35984; 18 h of treatment; read-out: MIC S. epidermidis ATCC 35984"}, "[18]": {"tested_on": "S. aureus ATCC 29213", "experiment": "MIC, twofold microdilution, standard strain", "type": "cell-based", "conditions": "Staphylococcus aureus, ATCC29213; 18 h of treatment; read-out: MIC S. aureus ATCC 29213"}, "[19]": {"tested_on": "PC3 cells", "experiment": "MTT assay, PC3", "type": "cell-based, human"}, "[20]": {"tested_on": "S. epidermidis ATCC 12228", "experiment": "MIC, twofold microdilution, standard strain", "type": "cell-based", "conditions": "Staphylococcus epidermidis, ATCC12228; 18 h of treatment; read-out: MIC S. epidermidis ATCC 12228"}, "[21]": {"tested_on": "S. epidermidis T 5253 845/19", "experiment": "MIC, clinical S. epidermidis strain", "type": "cell-based", "conditions": "Staphylococcus epidermidis, T5253845/19, quinolone-resistant, 18 h of treatment"}, "[22]": {"tested_on": "SW620 cells", "experiment": "MTT assay, SW620", "type": "cell-based, human"}, "[23]": {"molecular_target": "T1, S. aureus topoisomerase IV (Staphylococcus aureus, UniProt P0C1S7+P0C1U9)", "T1 construct": "purchased Inspiralis", "T1 sequence (P0C1U9 whole entry)": "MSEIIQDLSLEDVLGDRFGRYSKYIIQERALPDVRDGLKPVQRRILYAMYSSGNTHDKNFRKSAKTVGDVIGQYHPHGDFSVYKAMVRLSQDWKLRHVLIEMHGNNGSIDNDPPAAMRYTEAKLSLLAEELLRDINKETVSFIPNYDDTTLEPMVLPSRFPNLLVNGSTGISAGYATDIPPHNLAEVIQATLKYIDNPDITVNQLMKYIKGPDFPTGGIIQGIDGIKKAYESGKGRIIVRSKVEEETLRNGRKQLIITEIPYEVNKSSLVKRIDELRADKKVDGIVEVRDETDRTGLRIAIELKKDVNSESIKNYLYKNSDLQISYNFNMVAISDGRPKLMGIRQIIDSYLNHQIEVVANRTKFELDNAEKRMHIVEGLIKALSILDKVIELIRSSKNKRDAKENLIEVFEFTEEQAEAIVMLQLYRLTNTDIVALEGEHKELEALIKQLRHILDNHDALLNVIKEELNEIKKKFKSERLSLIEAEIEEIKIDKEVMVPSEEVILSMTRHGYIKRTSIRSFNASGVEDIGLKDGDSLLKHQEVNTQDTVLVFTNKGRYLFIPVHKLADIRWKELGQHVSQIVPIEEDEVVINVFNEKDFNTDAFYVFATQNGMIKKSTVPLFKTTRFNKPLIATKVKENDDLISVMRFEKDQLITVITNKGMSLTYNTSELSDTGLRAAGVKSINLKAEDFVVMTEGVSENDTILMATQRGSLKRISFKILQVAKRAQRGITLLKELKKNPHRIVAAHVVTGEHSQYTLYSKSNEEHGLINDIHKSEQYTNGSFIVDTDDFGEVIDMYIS", "T1 sequence (P0C1S7 whole entry)": "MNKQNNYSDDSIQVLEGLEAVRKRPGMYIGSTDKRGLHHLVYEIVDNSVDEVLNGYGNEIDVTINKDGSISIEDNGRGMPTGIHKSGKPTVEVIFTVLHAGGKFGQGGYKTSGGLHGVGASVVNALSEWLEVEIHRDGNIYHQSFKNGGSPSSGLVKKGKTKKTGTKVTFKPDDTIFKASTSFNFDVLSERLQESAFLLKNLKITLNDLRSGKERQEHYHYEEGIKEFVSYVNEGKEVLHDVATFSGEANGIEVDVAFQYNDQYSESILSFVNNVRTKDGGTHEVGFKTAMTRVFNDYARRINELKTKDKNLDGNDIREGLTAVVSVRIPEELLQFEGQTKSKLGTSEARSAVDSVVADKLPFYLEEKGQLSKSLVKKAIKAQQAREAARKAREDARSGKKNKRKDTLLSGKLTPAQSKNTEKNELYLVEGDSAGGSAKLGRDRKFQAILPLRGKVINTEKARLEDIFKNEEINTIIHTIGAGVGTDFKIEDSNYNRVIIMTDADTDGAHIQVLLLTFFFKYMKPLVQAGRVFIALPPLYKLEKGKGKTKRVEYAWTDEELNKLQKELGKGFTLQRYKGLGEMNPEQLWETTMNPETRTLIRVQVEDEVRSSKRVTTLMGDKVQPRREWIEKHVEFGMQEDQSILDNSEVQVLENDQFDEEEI", "experiment": "S. aureus topoisomerase IV decatenation assay", "type": "biochemical", "method": "The assay was performed using S. aureus topoisomerase IV […] kit (Inspiralis). Kinetoplast DNA (kDNA) was the substrate for topoisomerase IV."}, "[24]": {"molecular_target": "S. aureus DNA gyrase (Staphylococcus aureus, UniProt P0A0K8+P20831)", "sequence (P20831 whole entry)": "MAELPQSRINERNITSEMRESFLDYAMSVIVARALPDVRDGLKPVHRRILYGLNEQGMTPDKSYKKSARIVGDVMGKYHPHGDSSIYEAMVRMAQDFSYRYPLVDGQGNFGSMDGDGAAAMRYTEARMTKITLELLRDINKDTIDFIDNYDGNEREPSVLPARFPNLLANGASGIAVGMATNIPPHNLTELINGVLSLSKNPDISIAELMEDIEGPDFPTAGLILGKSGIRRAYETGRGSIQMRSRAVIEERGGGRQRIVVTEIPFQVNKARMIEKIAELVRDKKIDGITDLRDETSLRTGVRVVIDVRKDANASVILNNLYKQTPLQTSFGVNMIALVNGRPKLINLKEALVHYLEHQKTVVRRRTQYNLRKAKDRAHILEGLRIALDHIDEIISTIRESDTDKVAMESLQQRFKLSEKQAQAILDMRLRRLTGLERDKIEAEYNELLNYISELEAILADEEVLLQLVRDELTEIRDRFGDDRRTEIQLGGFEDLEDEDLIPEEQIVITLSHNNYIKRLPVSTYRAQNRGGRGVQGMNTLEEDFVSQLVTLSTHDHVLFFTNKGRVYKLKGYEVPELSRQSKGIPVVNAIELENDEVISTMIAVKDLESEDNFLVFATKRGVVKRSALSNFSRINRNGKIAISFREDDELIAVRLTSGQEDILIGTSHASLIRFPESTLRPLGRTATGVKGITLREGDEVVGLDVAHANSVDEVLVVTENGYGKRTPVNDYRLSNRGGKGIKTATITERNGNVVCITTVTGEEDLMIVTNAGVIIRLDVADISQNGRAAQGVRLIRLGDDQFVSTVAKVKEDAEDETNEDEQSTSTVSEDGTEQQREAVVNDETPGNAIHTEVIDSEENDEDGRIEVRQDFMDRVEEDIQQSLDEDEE", "sequence (P0A0K8 whole entry)": "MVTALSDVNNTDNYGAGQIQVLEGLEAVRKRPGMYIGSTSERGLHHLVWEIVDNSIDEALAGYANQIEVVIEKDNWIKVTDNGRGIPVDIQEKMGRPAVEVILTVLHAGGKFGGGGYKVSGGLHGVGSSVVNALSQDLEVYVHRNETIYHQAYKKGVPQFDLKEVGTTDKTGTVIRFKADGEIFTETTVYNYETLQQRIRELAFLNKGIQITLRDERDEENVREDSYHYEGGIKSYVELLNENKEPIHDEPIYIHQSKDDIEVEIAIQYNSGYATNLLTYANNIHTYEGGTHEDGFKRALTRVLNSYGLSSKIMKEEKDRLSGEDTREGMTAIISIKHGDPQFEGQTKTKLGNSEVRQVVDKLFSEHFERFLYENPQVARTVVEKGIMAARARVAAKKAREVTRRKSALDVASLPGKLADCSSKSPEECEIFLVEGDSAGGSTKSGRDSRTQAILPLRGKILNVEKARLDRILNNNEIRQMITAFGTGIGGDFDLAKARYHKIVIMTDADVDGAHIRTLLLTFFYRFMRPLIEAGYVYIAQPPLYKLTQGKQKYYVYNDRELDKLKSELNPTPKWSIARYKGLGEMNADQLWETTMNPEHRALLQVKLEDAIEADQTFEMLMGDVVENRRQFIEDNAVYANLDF", "experiment": "biochemical", "description": "The assay was performed using S. aureus DNA Gyrase Supercoiling kit (Inspiralis). […] Samples were vortexed, centrifuged, and 20 µL of the aqueous phase of each sample was loaded onto a 1% agarose gel and left for 30 min prior to electrophoresis to allow diffusion of salt. Electrophoresis was conducted in TAE buffer for 3 h at 50 V. Gels were stained with ethidium bromide and visualized under UV light in a transilluminator (ChemiDoc MP, Bio Rad, Warsaw, Poland)."}, "[25]": {"conditions": "SI = IC50 for normal cell line (HaCaT)/IC50 cancer cell line"}}, "note": "Like-named read-outs stand apart in the source and are kept apart here.", "data": [{"smiles": "COc1cccc2c1C(=O)c1c(O)c3c(c(O)c1C2=O)C[C@@](O)(C(=O)CO)C[C@@H]3O[C@H]1C[C@H](N)[C@H](O)[C@H](C)O1", "note": "[Doxorubicin, reference compound]", "values": [{"measurement": "IC50", "setting": "[1]", "value": "0.29 ± 0.1", "unit": "µM"}, {"measurement": "IC50", "setting": "[2]", "value": "0.75 ± 0.1", "unit": "µM"}]}, {"smiles": "CCCCCCCC/C=C\\CCCCCCCCCCCC(=O)N1CCCC2CN(c3c(F)cc4c(=O)c(C(=O)O)cn(C5CC5)c4c3OC)CC21", "note": "(stereo not shown) [Compound 7m, 1-Cyclopropyl-7-{1-(Z)-docos-13-enoyl-octahydro-pyrrolo[3,4-b]pyridin-6-yl}-6-fluoro-8-methoxy-4-oxo-1,4-dihydro-quinoline-3-carboxylic acid]", "values": [{"measurement": "MIC", "setting": "[3]", "value": 256, "unit": "µg/mL"}, {"measurement": "MIC", "setting": "[4]", "value": 512, "unit": "µg/mL"}, {"measurement": "MIC", "setting": "[5]", "value": "> 512", "unit": "µg/mL"}, {"measurement": "MIC", "setting": "[6]", "value": 256, "unit": "µg/mL"}, {"measurement": "MIC", "setting": "[7]", "value": 256, "unit": "µg/mL"}, {"measurement": "MIC", "setting": "[8]", "value": 256, "unit": "µg/mL"}, {"measurement": "MIC", "setting": "[9]", "value": "> 512", "unit": "µg/mL"}, {"measurement": "MIC", "setting": "[10]", "value": "> 32", "unit": "µg/mL"}, {"measurement": "MIC", "setting": "[11]", "value": 256, "unit": "µg/mL"}, {"measurement": "MIC", "setting": "[12]", "value": 256, "unit": "µg/mL"}, {"measurement": "MIC", "setting": "[13]", "value": 512, "unit": "µg/mL"}, {"measurement": "MIC", "setting": "[14]", "value": "> 512", "unit": "µg/mL"}, {"measurement": "MIC", "setting": "[15]", "value": 128, "unit": "µg/mL"}, {"measurement": "MIC", "setting": "[16]", "value": 512, "unit": "µg/mL"}, {"measurement": "MIC", "setting": "[17]", "value": 256, "unit": "µg/mL"}, {"measurement": "IC50", "setting": "[1]", "value": "85.2 ± 3.3", "unit": "µM"}, {"measurement": "IC50", "setting": "[2]", "value": "48.6 ± 2.6", "unit": "µM"}, {"measurement": "SI SW480", "setting": "[2]; [25]", "value": 1.8}, {"measurement": "MIC", "setting": "[18]", "value": 512, "unit": "µg/mL"}, {"measurement": "IC50", "setting": "[19]; Homo sapiens, PC-3, 72 h, human metastatic prostate cancer, 72 h, MTT, mean ± SD", "value": "36.5 ± 2.3", "unit": "µM"}, {"measurement": "SI PC3", "setting": "[19]; [25]", "value": 2.3}, {"measurement": "MIC", "setting": "[20]", "value": 512, "unit": "µg/mL"}, {"measurement": "MIC", "setting": "[21]", "value": "> 512", "unit": "µg/mL"}, {"measurement": "IC50", "setting": "[22]; Homo sapiens, SW-620, 72 h, human metastatic colon cancer, 72 h, MTT, mean ± SD", "value": "51.8 ± 4.3", "unit": "µM"}, {"measurement": "SI SW620", "setting": "[22]; [25]", "value": 1.6}]}, {"smiles": "NNC(=O)c1ccncc1", "note": "[Isoniazid (INH), Isoniazid, reference compound]", "values": [{"measurement": "MIC", "setting": "[9]", "value": 0.125, "unit": "µg/mL"}, {"measurement": "MIC", "setting": "[14]; 2 weeks of treatment", "value": 0.125, "unit": "µg/mL"}]}, {"smiles": "CC[C@@H](CO)NCCN[C@@H](CC)CO", "note": "[Ethambutol (EMB), Ethambutol, reference compound]", "values": [{"measurement": "MIC", "setting": "[9]; 2 weeks of treatment", "value": 2, "unit": "µg/mL"}, {"measurement": "MIC", "setting": "[14]; 2 weeks of treatment", "value": 2, "unit": "µg/mL"}]}, {"smiles": "[H]/N=C(/N)N[C@H]1[C@H](O)[C@@H](O)[C@H](O[C@@H]2O[C@@H](C)[C@](O)(C=O)[C@H]2O[C@@H]2O[C@@H](CO)[C@H](O)[C@@H](O)[C@@H]2NC)[C@@H](N/C(N)=N\\[H])[C@@H]1O", "note": "[Streptomycin (SM), Streptomycin, reference compound]", "values": [{"measurement": "MIC", "setting": "[9]; 2 weeks of treatment", "value": 1, "unit": "µg/mL"}, {"measurement": "MIC", "setting": "[14]; 2 weeks of treatment", "value": 1, "unit": "µg/mL"}]}, {"smiles": "CO[C@H]1/C=C/O[C@@]2(C)Oc3c(C)c(O)c4c(O)c(c(/C=N/N5CCN(C)CC5)c(O)c4c3C2=O)NC(=O)/C(C)=C\\C=C\\[C@H](C)[C@H](O)[C@@H](C)[C@@H](O)[C@@H](C)[C@H](OC(C)=O)[C@@H]1C", "note": "[Rifampicin (RMP), Rifampicin, reference compound]", "values": [{"measurement": "MIC", "setting": "[9]; 2 weeks of treatment", "value": 1, "unit": "µg/mL"}, {"measurement": "MIC", "setting": "[14]; 2 weeks of treatment", "value": 1, "unit": "µg/mL"}]}, {"smiles": "CC=CC(=O)N1CCN(c2cc3c(cc2F)c(=O)c(C(=O)O)cn3C2CC2)CC1", "note": "[Compound 1]", "values": [{"measurement": "IC50", "setting": "[23]", "value": "> 160", "unit": "µM"}, {"measurement": "IC50", "setting": "[24]", "value": "> 160", "unit": "µM"}]}]}
